# In patent EP4603105A1, “PHARMACEUTICAL COMPOSITION CONTAINING CYCLIC COMPOUND HAVING SELECTIVE KRAS INHIBITORY EFFECT AGAINST HRAS AND NRAS” (CHUGAI SEIYAKU KABUSHIKI KAISHA, priority 2022, dated 2024):
# pIC50: −log10 of the molar value. *1 amine or outer side, *2 acyl side, *3 side chain or, on linkers, in order; H or OH if unused. Where a SMILES comes first, the peptide text is derived from it. Bridges are numbered along the chain shown (N, C = ends). [ ]: non-standard residue; d: D form. The star is where a group is joined. hPhe(3-Cl-4-CF3) = N[C@@H](CCc1ccc(C(F)(F)F)c(Cl)c1)C(=O)O; X34 = COCCN([C@@H](Cc1ccc(C(F)(F)F)cc1)C(=O)[*:2])[*:1]; NPrPhe(4-CF3) = CCCN[C@@H](Cc1ccc(C(F)(F)F)cc1)C(=O)O; NEtAsp = CCN([C@@H](CC(=O)[*:3])C(=O)[*:2])[*:1]; NMeGly(cPent) = CN[C@H](C(=O)O)C1CCCC1; Pro(4,4-F2) = O=C(O)[C@@H]1CC(F)(F)CN1; NMeD = CN[C@@H](CC(=O)O)C(=O)O; NMeL = CN[C@@H](CC(C)C)C(=O)O; NMeNva = CCC[C@H](NC)C(=O)O; hPip = O=C(O)[C@@H]1CCCCCN1; Morpholide = C1CN(*)CCO1; NMeA = CN[C@@H](C)C(=O)O; Ac5c = NC1(C(=O)O)CCCC1; Aze = O=C(O)[C@@H]1CCN1; Ac4c = NC1(C(=O)O)CCC1; Ac3c = NC1(C(=O)O)CC1; NEtG = CCNCC(=O)O; Sar = CNCC(=O)O
# Key:
# [1] = target: GDP-bound NRAS wild-type protein (Homo sapiens, UniProt P01111); assay: Binding to NRAS by surface plasmon resonance (SPR), KD and KD ratio to KRAS
# Procedure, shortened: (§1)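 Recombinant RAS proteins bearing a biotinylated Avi tag and loaded with GDP served as the captured ligand, recaptured fresh every cycle. Binding responses were referenced to an uncoated surface and a buffer-only blank cycle. Dissociation constants were obtained by 1:1 model fitting at 30°C.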
# [2] = tested on: human lung cancer strain NCI-H441; assay type: cell-based
# Procedure, shortened: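 Signal came from […] measured per well once the reagent was added. Beforehand, cells were cultured at 37°C and 5% carbon dioxide on a compound series serially diluted in dimethyl sulfoxide.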
# HRAS wild-type protein = HRAS wild-type protein (Homo sapiens, UniProt P01112); assay: Binding to HRAS by surface plasmon resonance (SPR), KD and KD ratio to KRAS
# Procedure, shortened: as §1
# [3] = ratio of KD for GDP-bound NRAS wild-type protein to KD for KRAS
# [4] = ratio of KD for HRAS wild-type protein to KD for KRAS
# GDP-bound NRAS wild-type protein, sequence (P01111 whole entry): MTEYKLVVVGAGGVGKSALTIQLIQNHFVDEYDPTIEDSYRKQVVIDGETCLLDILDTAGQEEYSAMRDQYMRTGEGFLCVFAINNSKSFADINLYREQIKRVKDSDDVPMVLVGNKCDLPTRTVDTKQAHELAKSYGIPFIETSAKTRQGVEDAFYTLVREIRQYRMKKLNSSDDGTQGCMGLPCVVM
# HRAS wild-type protein, sequence (P01112 whole entry): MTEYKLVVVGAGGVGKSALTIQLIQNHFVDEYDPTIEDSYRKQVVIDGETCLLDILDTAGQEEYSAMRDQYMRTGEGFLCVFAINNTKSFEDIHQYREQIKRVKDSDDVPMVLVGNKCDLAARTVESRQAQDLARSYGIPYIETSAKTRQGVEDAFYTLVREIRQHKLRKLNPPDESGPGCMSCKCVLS
smiles,measurement,setting,value
CCCN1C(=O)CN(C)C(=O)CN(CC)C(=O)[C@H]([C@@H](C)CC)NC(=O)[C@@H]2CCCCCN2C(=O)C[C@@H](C(=O)N2CCOCC2)N(C)C(=O)[C@H](C2CCCC2)N(C)C(=O)C2(CCCC2)NC(=O)[C@@H]2CCCN2C(=O)[C@H](CCc2ccc(C(F)(F)F)c(Cl)c2)NC(=O)CN(C)C(=O)[C@@H]1Cc1ccc(C(F)(F)F)cc1 [PP0289] ([hPip]I[NEtG][Sar][NPrPhe(4-CF3)][Sar][hPhe(3-Cl-4-CF3)]P[Ac5c][NMeGly(cPent)][NMeD]-Morpholide; lactam N-11),NRAS /KRAS,[1]; [3],B (a compound having 3 or more and less than 10 is denoted as B)
same,pIC50,[2],7.12
same,HRAS /KRAS,HRAS wild-type protein; [4],B (a compound having 3 or more and less than 10 is denoted as B)
CCCN1C(=O)CN(C)C(=O)CN(C)C(=O)[C@H]([C@@H](C)CC)NC(=O)[C@H](CC(C)C)N(C)C(=O)C[C@@H](C(=O)N2CCOCC2)N(C)C(=O)[C@H](C2CCCC2)N(C)C(=O)C2(CC2)NC(=O)[C@@H]2CCCN2C(=O)[C@H](CCc2ccc(C(F)(F)F)c(Cl)c2)NC(=O)CN(C)C(=O)[C@@H]1Cc1ccc(C(F)(F)F)cc1 [PP0229] ([NMeL]I[Sar][Sar][NPrPhe(4-CF3)][Sar][hPhe(3-Cl-4-CF3)]P[Ac3c][NMeGly(cPent)][NMeD]-Morpholide; lactam N-11),NRAS /KRAS,[1]; [3],B (a compound having 3 or more and less than 10 is denoted as B)
same,pIC50,[2],7.61
same,HRAS /KRAS,HRAS wild-type protein; [4],B (a compound having 3 or more and less than 10 is denoted as B)
CCO[C@@H]1C[C@H]2C(=O)NC3(CCC3)C(=O)N(C)[C@@H](C3CCCC3)C(=O)N(C)[C@H](C(=O)N(C)C)CC(=O)N(C)[C@@H](CC)C(=O)N[C@@H]([C@@H](C)CC)C(=O)N(C)CC(=O)N(C)[C@H]3CCCCCN(C3=O)[C@@H](Cc3ccc(F)cc3C)C(=O)N(C)CC(=O)N[C@@H](CCc3cc(F)c(C(F)(F)F)c(F)c3)C(=O)N2C1 [PP0911],NRAS /KRAS,[1]; [3],B (a compound having 3 or more and less than 10 is denoted as B)
same,pIC50,[2],7.99
same,HRAS /KRAS,HRAS wild-type protein; [4],B (a compound having 3 or more and less than 10 is denoted as B)
"CCCN1C(=O)CN(C)C(=O)CNC(=O)[C@H]([C@@H](C)CC)NC(=O)[C@H](CC(C)C)N(C)C(=O)C[C@@H](C(=O)N2CCOCC2)NC(=O)[C@H](C2CCCC2)N(C)C(=O)C2(CCCC2)NC(=O)[C@@H]2CC(F)(F)CN2C(=O)[C@H](CCc2ccc(C(F)(F)F)c(Cl)c2)NC(=O)CN(C)C(=O)[C@@H]1Cc1ccc(C(F)(F)F)cc1 [PP0327] ([NMeL]IG[Sar][NPrPhe(4-CF3)][Sar][hPhe(3-Cl-4-CF3)][Pro(4,4-F2)][Ac5c][NMeGly(cPent)]D-Morpholide; lactam N-11)",NRAS /KRAS,[1]; [3],B (a compound having 3 or more and less than 10 is denoted as B)
same,pIC50,[2],6.79
same,HRAS /KRAS,HRAS wild-type protein; [4],B (a compound having 3 or more and less than 10 is denoted as B)
CCC[C@H]1C(=O)N[C@@H]([C@@H](C)CC)C(=O)N(C)CC(=O)N(C)[C@H]2C/C=C\CCN(C2=O)[C@@H](Cc2ccc(C(F)(F)F)cc2)C(=O)N(C)CC(=O)N[C@@H](CCc2ccc(C(F)(F)F)c(C3CC3)c2)C(=O)N2C[C@H](OCC)C[C@H]2C(=O)NC2(CC(C)(C)C2)C(=O)N(C)[C@@H](C2CCCC2)C(=O)N(C)[C@H](C(=O)N(C)C)CC(=O)N1C [PP2852],NRAS /KRAS,[1]; [3],B (a compound having 3 or more and less than 10 is denoted as B)
same,pIC50,[2],8.06
same,HRAS /KRAS,HRAS wild-type protein; [4],B (a compound having 3 or more and less than 10 is denoted as B)
CCC[C@H]1C(=O)N[C@@H]([C@@H](C)CC)C(=O)N(C)CC(=O)N(C)[C@H]2C/C=C\CCN(C2=O)[C@@H](Cc2ccc(C(F)(F)F)cc2)C(=O)N(C)CC(=O)N[C@@H](CCc2cc(F)c(C(F)(F)F)c(F)c2)C(=O)N2C[C@H](OCC)C[C@H]2C(=O)N(C)C2(CCC2)C(=O)N(C)[C@@H](C2CCCC2)C(=O)N(C)[C@H](C(=O)N2CCCC2)CC(=O)N1C [PP3120],NRAS /KRAS,[1]; [3],AA (a compound having 20 or more is denoted as AA)
same,pIC50,[2],8.72
same,HRAS /KRAS,HRAS wild-type protein; [4],A (a compound having 10 or more and less than 20 is denoted as A)
CCCN1C(=O)CN(C)C(=O)CN(CC)C(=O)[C@H]([C@@H](C)CC)NC(=O)[C@H](CC(C)C)N(C)C(=O)C[C@@H](C(=O)N(C)C)NC(=O)[C@H](C2CCCC2)N(C)C(=O)C2(CCC2)NC(=O)[C@@H]2CCCN2C(=O)[C@H](CCc2ccc(C(F)(F)F)c(Cl)c2)NC(=O)CN(C)C(=O)[C@@H]1Cc1ccc(C(F)(F)F)cc1 [PP0368] ([NMeL]I[NEtG][Sar][NPrPhe(4-CF3)][Sar][hPhe(3-Cl-4-CF3)]P[Ac4c][NMeGly(cPent)]D-NMe2; lactam N-11),NRAS /KRAS,[1]; [3],B (a compound having 3 or more and less than 10 is denoted as B)
same,pIC50,[2],6.94
same,HRAS /KRAS,HRAS wild-type protein; [4],B (a compound having 3 or more and less than 10 is denoted as B)
CCCO[C@@H]1C[C@H]2C(=O)NC3(CC(C)(C)C3)C(=O)N(C)[C@@H](C3CCCC3)C(=O)N(C)[C@H](C(=O)N3CCCCC3)CC(=O)N(C)[C@H]3CCCc4ccc(cc4)C[C@@H](C(=O)N(C)CC(=O)N[C@@H](CCc4ccc(C(F)(F)F)c(OC)c4)C(=O)N2C1)N1CC/C=C\C[C@@H](C1=O)N(C)C(=O)CN(C)C(=O)[C@H]([C@@H](C)CC)NC3=O [PP3064],NRAS /KRAS,[1]; [3],B (a compound having 3 or more and less than 10 is denoted as B)
same,pIC50,[2],7.57
same,HRAS /KRAS,HRAS wild-type protein; [4],B (a compound having 3 or more and less than 10 is denoted as B)
CCC[C@H]1C(=O)N[C@@H]([C@@H](C)CC)C(=O)N(C)[C@@H](C)C(=O)N2CC[C@H]2C(=O)N(CCC)[C@@H](Cc2ccc(C(F)(F)F)cc2)C(=O)N(C)CC(=O)N[C@@H](CCc2ccc(C(F)(F)F)c(Cl)c2)C(=O)N2CCC[C@H]2C(=O)NC2(CCC2)C(=O)N(C)[C@@H](C2CCCC2)C(=O)N(CC)[C@H](C(=O)N2CCOCC2)CC(=O)N1C [PP1955] ([NMeNva]I[NMeA][Aze][NPrPhe(4-CF3)][Sar][hPhe(3-Cl-4-CF3)]P[Ac4c][NMeGly(cPent)][NEtAsp]-Morpholide; lactam N-11),NRAS /KRAS,[1]; ratio of the KD value with respect to GDP-bound NRAS wild-type protein to the KD value with respect to KRAS,C (A compound having a KD ratio of 0.1 or more and less than 3 is denoted as C)
same,pIC50,[2],8.36
same,HRAS /KRAS,HRAS wild-type protein; ratio of the KD value with respect to HRAS wild-type protein to the KD value with respect to KRAS,B (a compound having 3 or more and less than 10 is denoted as B)
CC[C@H](C)[C@@H]1NC(=O)[C@H](CC(C)C)N(C)C(=O)C[C@@H](C(=O)N2CCOCC2)N(C)C(=O)[C@H](C2CCCC2)N(C)C(=O)C2(CCC2)NC(=O)[C@@H]2[C@@H](O)CCN2C(=O)[C@H](CCc2cc(F)c(C(F)(F)F)c(F)c2)NC(=O)CN(C)C(=O)[C@H](Cc2ccc(C(F)(F)F)cc2)N2CCCC[C@@H](C2=O)N(C)C(=O)CN(C)C1=O [PP0869],NRAS /KRAS,[1]; [3],B (a compound having 3 or more and less than 10 is denoted as B)
same,pIC50,[2],6.87
same,HRAS /KRAS,HRAS wild-type protein; [4],B (a compound having 3 or more and less than 10 is denoted as B)
CCC[C@H]1C(=O)N[C@@H]([C@@H](C)CC)C(=O)N(C)CC(=O)N(C)[C@H]2C/C=C\CCN(C2=O)[C@@H](Cc2ccc(C)cc2)C(=O)N(C)CC(=O)N[C@@H](CCc2cc(F)c(C(F)(F)F)c(F)c2)C(=O)N2CC3(CC3)C[C@H]2C(=O)NC2(CC(C)(C)C2)C(=O)N(C)[C@@H](CC(C)(C)C)C(=O)N(C)[C@H](C(=O)N(C)C)CC(=O)N1C [PP2997],NRAS /KRAS,[1]; [3],A (a compound having 10 or more and less than 20 is denoted as A)
same,pIC50,[2],8.39
same,HRAS /KRAS,HRAS wild-type protein; [4],B (a compound having 3 or more and less than 10 is denoted as B)
CC[C@H](C)[C@@H]1NC(=O)[C@H](CC(C)C)N(C)C(=O)C[C@@H](C(=O)N2CCOCC2)N(C)C(=O)[C@H](C2CCCC2)N(C)C(=O)C2(CCCC2)NC(=O)[C@@H]2CCCN2C(=O)[C@H](CCc2ccc(C(F)(F)F)c(Cl)c2)NC(=O)CN(C)C(=O)[C@H](Cc2ccc(C(F)(F)F)cc2)N(CCOC)C(=O)[C@@H]2CCN2C(=O)[C@H](C)N(C)C1=O [PP0118] ([NMeL]I[NMeA][Aze][X34][Sar][hPhe(3-Cl-4-CF3)]P[Ac5c][NMeGly(cPent)][NMeD]-Morpholide; lactam N-11),NRAS /KRAS,[1]; [3],C (A compound having a KD ratio of 0.1 or more and less than 3 is denoted as C)
same,pIC50,[2],8.22
same,HRAS /KRAS,HRAS wild-type protein; [4],C (A compound having a KD ratio of 0.1 or more and less than 3 is denoted as C)
CC[C@H](C)[C@@H]1NC(=O)[C@H](CC2CC2)N(C)C(=O)C[C@@H](C(=O)N(C)C)N(C)C(=O)[C@H](C2CCCC2)N(C)C(=O)C2(CC(C)(C)C2)NC(=O)[C@@H]2CC(F)(F)CN2C(=O)[C@H](CCc2cc(F)c(C(F)(F)F)c(F)c2)NC(=O)CN(C)C(=O)[C@H](Cc2ccc(C(F)(F)F)cc2)N2CC/C=C\C[C@@H](C2=O)N(C)C(=O)CN(C)C1=O [PP1713],NRAS /KRAS,[1]; ratio of KD value for GDP-bound NRAS wild-type protein to KD value for KRAS (SPR),A (a compound having 10 or more and less than 20 is denoted as A)
same,pIC50,[2],8.10
same,HRAS /KRAS,HRAS wild-type protein; ratio of KD value for HRAS wild-type protein to KD value for KRAS (SPR),A (a compound having 10 or more and less than 20 is denoted as A)
